Data on three molecules can be found in paper PMC7429544, “Influence of protein (human galectin-3) design on aspects of lectin activity” (Histochemistry and Cell Biology, 2020).

For assay [1], the target named is T1, Gal-3–Gal-3 (Homo sapiens, UniProt P17931).
T1 construct: gene LGALS3; engineered covalent homodimer: two Gal-3 CRDs fused directly C- to N-terminus in one polypeptide, no tail; recombinant from bacteria
The assay is described as follows: inhibition of biotinylated lectin staining, fixed murine jejunum sections. Particulars: 0.5 mM Lac as part of glycocluster; labelled lectin 0.25 µg/mL.

Assay [2] addresses T2, Gal-3 (full-length wild-type human galectin-3) (Homo sapiens, UniProt P17931).
T2 construct: gene LGALS3; full-length with N-terminal tail (two Ser phosphorylation sites, nine collagen-like repeats) and CRD; monomeric in solution; biotinylated for tissue sections
Described as above. Conditions: 0.5 mM Lac as part of glycocluster; labelled lectin 4 µg/mL.

Assay [3] has as its target T3, Gal-1–Gal-3.
T3 construct: gene LGALS1; engineered heterodimer in one polypeptide: N-terminal Gal-1 CRD fused directly to Gal-3 CRD; recombinant from bacteria
The assay is described as follows: isothermal titration calorimetry. Conditions: 25 °C, pH 7.2, 20 mM phosphate, 10 mM NaCl, 2 mM β-mercaptoethanol; one-set-of-sites model; protein precipitated, dissolved and dialyzed. Type of assay: binding, Homo sapiens. The source says:
isothermal titration calorimetry on Gal-1–Gal-3
Background: In ITC the heat of successive injections is recorded.

Assay [4] deals with T4, Gal-3–Gal-1.
T4 construct: gene LGALS3; engineered heterodimer in one polypeptide: N-terminal Gal-3 CRD fused directly to Gal-1 CRD; recombinant from bacteria
The assay is described as follows: isothermal titration calorimetry. Type of assay: binding, Homo sapiens. Conditions: 25 °C, pH 7.2, 20 mM phosphate, 10 mM NaCl, 2 mM β-mercaptoethanol; one-set-of-sites model; protein precipitated, dissolved and dialyzed. The text has this:
isothermal titration calorimetry on Gal-3–Gal-1

The target in assay [5] is T5, Gal-3–8S–Gal-3 (Homo sapiens, UniProt P17931).
T5 construct: gene LGALS3; engineered covalent homodimer: two Gal-3 CRDs joined by the 33-residue Gal-8S linker peptide in one polypeptide, no tail; recombinant from bacteria
T5 sequence (P17931 114-250 limits assumed): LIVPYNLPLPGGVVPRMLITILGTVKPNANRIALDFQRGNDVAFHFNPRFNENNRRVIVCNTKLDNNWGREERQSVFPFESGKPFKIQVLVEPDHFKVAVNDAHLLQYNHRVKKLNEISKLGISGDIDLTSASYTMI
The assay is described as follows: isothermal titration calorimetry. Type of assay: binding. Particulars: 25 °C, pH 7.2, 20 mM phosphate, 10 mM NaCl, 2 mM β-mercaptoethanol; one-set-of-sites model; lyophilized protein. The text has this:
isothermal titration calorimetry on Gal-3–8S–Gal-3

The target of assay [6] is T6, Gal-1–8S–Gal-3.
T6 construct: gene LGALS1; engineered heterodimer in one polypeptide: N-terminal Gal-1 CRD, 33-residue Gal-8S linker, Gal-3 CRD; recombinant from bacteria
The assay is described as follows: isothermal titration calorimetry. The class given is binding, Homo sapiens. Particulars: 25 °C, pH 7.2, 20 mM phosphate, 10 mM NaCl, 2 mM β-mercaptoethanol; one-set-of-sites model; lyophilized protein (first of two preparations). The source says:
isothermal titration calorimetry on Gal-1–8S–Gal-3

In assay [7] the target is T2, Gal-3 (full-length wild-type human galectin-3). The assay is described as follows: isothermal titration calorimetry. The class given is binding. Particulars: 25 °C, pH 7.2, 20 mM phosphate, 10 mM NaCl, 2 mM β-mercaptoethanol; one-set-of-sites model; lyophilized protein. The source says: isothermal titration calorimetry on Gal-3 (full-length wild-type human galectin-3)

The target in assay [8] is T7, Gal-3 CRD (trGal-3) (Homo sapiens, UniProt P17931).
T7 construct: gene LGALS3; C-terminal carbohydrate recognition domain only, N-terminal tail proteolytically removed; recombinant from bacteria
T7 sequence (P17931 114-250 limits assumed): as above
The assay is described as follows: isothermal titration calorimetry. The class given is binding. Conditions: 25 °C, pH 7.2, 20 mM phosphate, 10 mM NaCl, 2 mM β-mercaptoethanol; one-set-of-sites model; lyophilized protein. The source says: isothermal titration calorimetry on Gal-3 CRD (trGal-3)

The target in assay [9] is T1, Gal-3–Gal-3. The assay is described as follows: isothermal titration calorimetry. Type of assay: binding. Particulars: 25 °C, pH 7.2, 20 mM phosphate, 10 mM NaCl, 2 mM β-mercaptoethanol, one-set-of-sites model, dissolved and dialyzed. The source says:
isothermal titration calorimetry on Gal-3–Gal-3

Assay [10] addresses T8, Gal-3–8S–Gal-1.
T8 construct: gene LGALS3; engineered heterodimer in one polypeptide: N-terminal Gal-3 CRD, 33-residue Gal-8S linker, Gal-1 CRD; recombinant from bacteria
The assay is described as follows: isothermal titration calorimetry. The class given is binding, Homo sapiens. Conditions: 25 °C, pH 7.2, 20 mM phosphate, 10 mM NaCl, 2 mM β-mercaptoethanol; one-set-of-sites model; lyophilized protein (first of two preparations). The source says:
isothermal titration calorimetry on Gal-3–8S–Gal-1

T1 sequence (P17931 114-250 limits assumed): as above
T2 sequence (P17931 2-250): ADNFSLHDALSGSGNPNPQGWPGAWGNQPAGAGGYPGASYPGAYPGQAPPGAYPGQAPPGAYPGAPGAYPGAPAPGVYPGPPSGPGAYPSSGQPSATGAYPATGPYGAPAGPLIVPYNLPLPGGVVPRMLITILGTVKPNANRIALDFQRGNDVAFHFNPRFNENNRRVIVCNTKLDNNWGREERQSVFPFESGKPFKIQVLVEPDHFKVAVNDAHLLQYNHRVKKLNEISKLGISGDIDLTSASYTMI

With `OC[C@H]1O[C@@H](O[C@H]2[C@H](O)[C@@H](O)[C@H](n3cc(COc4ccc(C(=C(c5ccc(OCc6cn([C@@H]7O[C@H](CO)[C@@H](O[C@@H]8O[C@H](CO)[C@H](O)[C@H](O)[C@H]8O)[C@H](O)[C@H]7O)nn6)cc5)c5ccc(OCc6cn([C@@H]7O[C@H](CO)[C@@H](O[C@@H]8O[C@H](CO)[C@H](O)[C@H](O)[C@H]8O)[C@H](O)[C@H]7O)nn6)cc5)c5ccc(OCc6cn([C@@H]7O[C@H](CO)[C@@H](O[C@@H]8O[C@H](CO)[C@H](O)[C@H](O)[C@H]8O)[C@H](O)[C@H]7O)nn6)cc5)cc4)nn3)O[C@@H]2CO)[C@H](O)[C@@H](O)[C@H]1O` [compound 2], the staining inhibition entry in assay [1] is given as “extent of binding of the Gal-3–Gal-3 homodimer was less potently reduced”; in assay [2], “Signal for binding of Gal-3 was strongly reduced in cells of the villi”.

With `CC(=O)N[C@H]1C(O)O[C@H](CO)[C@@H](O[C@@H]2O[C@H](CO)[C@H](O)[C@H](O)[C@H]2O)[C@@H]1O` (some centres unmarked) [LacNAc], the dissociation constant (Kd) (commonly a measure of binding affinity in units of concentration) in assay [3] stood at 59 ± 1.45 µM; in [4], 49.7 ± 0.95 µM; in [5], 29.4 ± 0.92 µM; in [6], 48 ± 1.71 µM; in [7] it was 37.5 ± 0.48 µM; in [8], 45.6 ± 1.64 µM. Also, the Kd came to 36.2 ± 0.78 µM in assay [9] (protein precipitated with ammonium sulfate) and 60 ± 1.1 µM in assay [10].

`CC(=O)N[C@H]1C(O)O[C@H](CO)[C@H](O)[C@@H]1O[C@@H]1O[C@H](CO)[C@H](O)[C@H](O)[C@H]1O` (some centres unmarked) [Galβ1,3GalNAc]: the Kd in assay [5] was 157 ± 4.69 µM; in [7], 222 ± 18.5 µM; in assay [8], 264 ± 13.7 µM; in assay [9] (protein precipitated), 288 ± 3.01 µM.
